The text below walks through data of ChEMBL document CHEMBL1125006, “DNA-directed alkylating agents. 2. Synthesis and biological activity of platinum complexes linked to 9-anilinoacridine” (J Med Chem, 1990).

In experiment [1] the test system is P388. As to the kind of experiment: Increase in mean survival of P388 (murine leukemia) inoculated mice; no effect. As to conditions: Mus musculus. In kind it is functional.
Experiment [2] relates to P388. Description: In vitro inhibition of Pt resistant P388 (murine leukemia) cell growth. The experiment is classed as functional, cell-based, Mus musculus.
The test system of experiment [3] is P388. As to the kind of experiment: In vitro inhibition of P388 (murine leukemia) cell growth. In kind it is functional, cell-based, Mus musculus.
For experiment [4], the system named is P388. Description: Optimal i.p. dose in P388 (murine leukemia) inoculated mice. In kind it is functional, Mus musculus.
Experiment [5] deals with P388. Description: Increase in mean survival of P388 (murine leukemia) inoculated mice following optimal dose. In kind it is functional, organism-based. As to conditions: Mus musculus.

Calls of active or inactive are those of the source. No cut-off for these calls is given here.

Turning to `NCCNCCCc1ccc(Nc2c3ccccc3nc3ccccc23)cc1`, the ILS entry in experiment [1] was “inactive”. The IC50 in experiment [2] (Mus musculus, P388) was found to be 700 nM; in experiment [3] (Mus musculus, P388) it was 3700 nM. The OD in experiment [4] amounted to 20 mg/kg.

Regarding “N,1-{2-[4-(Acridin-9-ylamino)-phenyl]-ethyl}-ethane-1,2-diammino-dichloroplatinum (II) [listing 1 of 2 here]”, the ILS entry in experiment [1] is “inactive”. Besides, in experiment [4] (Mus musculus), the OD came to 13.3 mg/kg.

On to “Dichloro(1,3-propanediamine)platinum (II) [listing 1 of 2 here]”, for which the increase in life span (ILS) in experiment [5] was determined as 31%. Besides, the OD in experiment [4] (Mus musculus) amounted to 8.9 mg/kg.

Turning to “N,1-{2-[4-(Acridin-9-ylamino)-phenyl]-ethyl}-ethane-1,2-diammino-dichloroplatinum (II) [listing 2 of 2 here]”, the half-inhibitory concentration (IC50) in experiment [2] (p388) is 2400 nM; in experiment [3] (p388), 2900 nM.

For “2-{4-[4-(Acridin-9-ylamino)-phenyl]-butyl}-propane-1,3-diammino-dichloroplatinum (II) (HCl) [listing 1 of 2 here]”, in experiment [1], the ILS result is “inactive”. This compound also returned an OD in experiment [4] (Mus musculus) of 30 mg/kg.

For `NCC(CN)CCCCc1ccc(Nc2c3ccccc3nc3ccccc23)cc1`, the ILS entry in experiment [1] was “inactive”. Besides, the IC50 amounted to 680 nM in experiment [2] (Mus musculus, P388) and 720 nM in experiment [3] (Mus musculus, P388). The OD in experiment [4] amounted to 20 mg/kg.

Consider “2-{3-[4-(Acridin-9-ylamino)-phenyl]-propyl}-propane-1,3-diammino-dichloroplatinum (II) (HCl) [listing 1 of 2 here]”, for which the ILS result in experiment [1] was “inactive”. In addition, the OD in experiment [4] (Mus musculus) was found to be 20 mg/kg.

As for “9-[4-(5-Amino-4-aminomethyl-pentyl)-phenylamino]-5-methoxy-acridine-4-carboxylic acid (2-dimethylamino-ethyl)-amide (2HCl) [listing 1 of 2 here]”, the half-inhibitory concentration (IC50) in experiment [2] (p388) was 1000 nM; in experiment [3] (p388), 1600 nM.

On to `NCCNCCc1ccc(Nc2c3ccccc3nc3ccccc23)cc1`, for which, in experiment [1], the ILS result is “inactive”. Also, the IC50 was found to be 45000 nM in experiment [2] (Mus musculus, P388) and 12500 nM in experiment [3] (Mus musculus, P388). In addition, the OD in experiment [4] is 45 mg/kg.

CISPLATIN [listing 1 of 2 here]: the ILS in experiment [5] was found to be 120%. The compound also gave an OD in experiment [4] (Mus musculus) of 5.3 mg/kg.

With `NCC(CN)CCCc1ccc(Nc2c3ccccc3nc3ccccc23)cc1`, the ILS result in experiment [1] was “inactive”. Moreover, the IC50 in experiment [2] (Mus musculus, P388) was 120 nM; in experiment [3] (Mus musculus, P388), 120 nM. In experiment [4], this compound had an OD of 30 mg/kg.

Turning to `NCCNCCCCc1ccc(Nc2c3ccccc3nc3ccccc23)cc1`, in experiment [1], the ILS result was “inactive”. Moreover, the IC50 came to 1300 nM in experiment [2] (Mus musculus, P388) and 7800 nM in experiment [3] (Mus musculus, P388). In experiment [4], this compound had an OD of 65 mg/kg.

Regarding `NCC(CN)Cc1ccc(Nc2c3ccccc3nc3ccccc23)cc1`, the ILS entry in experiment [1] is “inactive”. The IC50 in experiment [2] (Mus musculus, P388) was determined as 700 nM; in experiment [3] (Mus musculus, P388), 7200 nM. The same compound had an OD in experiment [4] of 45 mg/kg.

In experiment [5], “9-[4-(5-Amino-4-aminomethyl-pentyl)-phenylamino]-5-methoxy-acridine-4-carboxylic acid (2-dimethylamino-ethyl)-amide (2HCl) [listing 2 of 2 here]” yielded an ILS of 28%. Further, the OD in experiment [4] (Mus musculus) came out at 45 mg/kg.

For CISPLATIN [listing 2 of 2 here], the half-inhibitory concentration (IC50) stood at 5500 nM in experiment [2] (p388) and 1200 nM in experiment [3] (p388).

Regarding “2-{3-[4-(Acridin-9-ylamino)-phenyl]-propyl}-propane-1,3-diammino-dichloroplatinum (II) (HCl) [listing 2 of 2 here]”, the half-maximal inhibitory concentration (IC50) in experiment [2] (p388) was 1900 nM; in experiment [3] (p388), 2900 nM.

Consider `NCCNCCCCCc1ccc(Nc2c3ccccc3nc3ccccc23)cc1`, for which the ILS result in experiment [1] is “inactive”. Moreover, the half-maximal inhibitory concentration (IC50) in experiment [2] (Mus musculus, P388) was 3000 nM; in experiment [3] (Mus musculus, P388), 7300 nM. In experiment [4], this compound yielded an OD of 20 mg/kg.

In experiment [5], “DICHLORO(ETHYLENEDIAMINE) PLATINUM (II) [listing 1 of 2 here]” gave an ILS of 70%. Moreover, the OD in experiment [4] (Mus musculus) was 13.3 mg/kg.

On to `NCC(CN)CCc1ccc(Nc2c3ccccc3nc3ccccc23)cc1`, for which the ILS result in experiment [1] is “inactive”. In addition, the IC50 in experiment [2] (Mus musculus, P388) was found to be 630 nM; in experiment [3] (Mus musculus, P388), 310 nM. Moreover, the OD in experiment [4] was determined as 30 mg/kg.

For `NCC(CN)CCCCCc1ccc(Nc2c3ccccc3nc3ccccc23)cc1`, the ILS entry in experiment [1] was “inactive”. The IC50 in experiment [2] (Mus musculus, P388) was 690 nM; in experiment [3] (Mus musculus, P388) it was 720 nM. The OD in experiment [4] was 13.3 mg/kg.

Turning to “2-{4-[4-(Acridin-9-ylamino)-phenyl]-butyl}-propane-1,3-diammino-dichloroplatinum (II) (HCl) [listing 2 of 2 here]”, the IC50 in experiment [2] (p388) is 900 nM; in experiment [3] (p388), 7200 nM.

Consider `COc1cccc2c(Nc3ccc(CCCC(CN)CN)cc3)c3cccc(C(=O)NCCN(C)C)c3nc12`, for which, in experiment [1], the ILS entry is “inactive”. Besides, the OD in experiment [4] turned out to be 30 mg/kg.

As to “Dichloro(1,3-propanediamine)platinum (II) [listing 2 of 2 here]”, the half-maximal inhibitory concentration (IC50) in experiment [2] (p388) came to 380 nM; in experiment [3] (p388), 120 nM.

Turning to “DICHLORO(ETHYLENEDIAMINE) PLATINUM (II) [listing 2 of 2 here]”, the half-maximal inhibitory concentration (IC50) in experiment [2] (p388) is 1030 nM; in experiment [3] (p388), 300 nM.
